Assays:
[1] = Pharmacokinetics after intravenous and oral administration in rats; type: in vivo; settings: for clearance (CL) / AUC(0-t) / half-life / Vd: iv dosing, 1 mg/kg; for F: oral bioavailability; for AUC(0-t) / half-life / Vd: rat, plasma; for Vd: read-out: Vss
Procedure: The LC/MS/MS system used in the analysis consists of an Agilent 1200 Series vacuum degasser, binary pump, well-plate autosampler, thermostatted column compartment, the Agilent G6430 Triple Quadrupole Mass Spectrometer with an electrosprayionization (ESI) source. Quantitative analysis was carried out using MRM mode. The parameters for MRM transitions are in the Table A.
An Agilent XDB-C18, 2.1×30 mm, 3.5 μM column was used for the analysis. 5 μL of the samples were injected. Analysis condition: The mobile phase was 0.1% formic acid in water (A) and 0.1% formic acid in methanol (B). The flow rate was 0.4 mL/min. And the gradient of Mobile phase was in the Table B.
Alternatively, an Agilent 6330 series LC/MS/MS spectrometer equipped with G1312A binary pumps, a G1367A autosampler and a G1314C UV detector were used in the analysis. An ESI source was used on the LC/MS/MS spectrometer. The analysis was done in positive ion mode as appropriate and the MRM transition for each analyte was optimized using standard solution. A Capcell MP-C18 100×4.6 mm I.D., […] column (Phenomenex, Torrance, Calif., USA) was used during the analysis. The mobile phase was 5 mM ammonia acetate, 0.1% MeOH in water (A): 5 mM ammonia acetate, 0.1% MeOH in acetonitrile (B) (70:30, v/v). The flow rate was 0.6 mL/min. Column was maintained at ambient temperature. 20 μL of the samples were injected.
The compounds disclosed herein are assessed in pharmacokinetic studies in mice, rats, dogs or monkeys. The compounds are administered as a water solution, 2% HPMC+1% TWEEN®80 in water solution, 5% DMSO+5% solutol in saline, 4% MC suspension or capsule. For the intravenous administration, the animals are generally given at 1 or 2 mg/kg dose. For the oral (p.o.) dosing, mice and rats are generally given 5 or 10 mg/kg dose, and dogs and monkeys are generally given 10 mg/kg dose. The blood samples (0.3 mL) are drawn at 0.25, 0.5, 1.0, 2.0, 3.0, 4.0, 6.0, 8.0, 12 and 24 h time points or 0.083, 0.25, 0.5, 1.0, 2.0, 4.0, 6.0, 8.0 and 24 h time points and centrifuged at 3,000 or 4000 rpm for 2 to 10 min. The plasma solutions are collected, and stored at −20° C. or −70° C. until analyzed by LC/MS/MS as described above.

[2] = Compound stability in rat liver microsomes; type: in vitro ADME; settings: for half-life: pH 7.4, 37° C., NADPH, read-out: Rat T1/2; for CLint scaled: pH 7.4, in vivo CLint extrapolated
Procedure: Human or rat liver microsomes incubations were conducted in duplicate in polypropylene tubes. The typical incubation mixtures consisted of human or rat liver microsomes (0.5 mg protein/mL), compounds of interest (5 μM) and NADPH (1.0 mM) in a total volume of 200 μL potassium phosphate buffer (PBS, 100 mM, pH 7.4). Compounds were dissolved in DMSO and diluted with PBS such that the final concentration of DMSO was 0.05%. The enzymatic reactions were commenced with the addition of protein after a 3-min preincubation and incubated in a water bath open to the air at 37° C. Reactions were terminated at various time points (0, 5, 10, 15, 30, 60 min) by adding equal volume of ice-cold acetonitrile. The samples were stored at −80° C. until LC/MS/MS assays.
The concentrations of compounds in the incubation mixtures of human or rat liver microsomes were determined by a LC/MS/MS method. The ranges of the linearity in the concentration range were determined for each tested compounds.
A parallel incubation was performed using denatured microsomes as the negative control, and reactions were terminated at various time points (0, 15, 60 min) after incubation at 37° C.
Verapamil (1 μM) was selected as the positive control, and reactions were terminated at various time points (0, 5, 10, 15, 30, 60 min) after incubation at 37° C. Both positive and negative control samples were included in each assay to ensure the integrity of the microsomal incubation system.
In addition, the stability date of compound in human and rat liver microsomes was also obtained through the following method. Human or rat liver microsomes incubations were conducted in duplicate in polypropylene tubes. The typical incubation mixtures consisted of human or rat liver microsomes (0.5 mg protein/mL), compounds of interest (1.5 μM) and EDTA (1.0 mM) in a total volume of 30 μL potassium phosphate buffer (PBS, 100 mM, pH 7.4). Compounds were dissolved in DMSO and diluted with PBS such that the final concentration of DMSO was 0.2%. The enzymatic reactions were commenced with the addition of 15 μL NADPH (final concentration: 2 mM) after a 10-min preincubation and incubated in a water bath open to the air at 37° C. Reactions were terminated at various time points (0, 15, 30, 60 min) by adding 135 μL acetonitrile (contain IS). The samples were centrifuged at 4000 rpm for 10 min to remove protein, the supernatant was stored at −80° C. until LC/MS/MS assays. Ketanserin (1 μM) was selected as the positive control, and reactions were terminated at various time points (0, 15, 30, 60 min) after incubation at 37° C. Both positive and negative control samples were included in each assay to ensure the integrity of the microsomal incubation system.
The concentrations of compounds in human or rat liver microsome incubations were plotted as a percentage of the relevant zero time point control for each reaction. The in vivo CLint were extrapolated (ref.: Naritomi, Y.; Terashita, S.; Kimura, S.; Suzuki, A.; Kagayama, A.; and Sugiyama, Y.; Prediction of human hepatic clearance from in vivo animal experiments and in vitro metabolic studies with liver microsomes from animals and humans. Drug Metab. Dispos., 2001, 29: 1316-1324).

Structure (SMILES)	clearance (CL) [1] [L/h/kg]	F [1] [%]	AUC(0-t) [1] [µg·h/mL]	half-life [1] [min]	Vd [1] [L/kg]	half-life [2] [min]	CLint scaled [2] [L/h/kg]
Cc1c2ccc(Nc3ncc(Cl)c(NC4CCN(c5ccc(C#N)nn5)CC4)n3)cc2nn1C [Ex. 12, 6-(4-((5-chloro-2-((2,3-dimethyl-2H-indazol-6-yl)amino)pyrimidin-4-yl)amino)piperidin-1-yl)pyridazine-3-carbonitrile]	0.68	39.2	1.48	29.4	0.5	18.9	7.87
Cc1nn(C)cc1Nc1ncc(Cl)c(NC2CCN(c3ccc(C#N)nn3)CC2)n1 [Ex. 11, 6-(4-((5-chloro-2-((1,3-dimethyl-1H-pyrazol-4-yl)amino)pyrimidin-4-yl)amino)piperidin-1-yl)pyridazine-3-carbonitrile]	1.06	61.8	0.931	27	0.62	23.6	6.33
Cc1cc(Nc2ncc(Cl)c(NC3CCN(c4ccc(C#N)nn4)CC3)n2)nn1C [Ex. 13, 6-(4-((5-chloro-2-((1,5-dimethyl-1H-pyrazol-3-yl)amino)pyrimidin-4-yl)amino)piperidin-1-yl)pyridazine-3-carbonitrile]						9.68	15.4
Cc1c2ccc(Nc3ncc(Cl)c(NC4CCN(c5ccc(C#N)cn5)CC4)n3)cc2nn1C [Ex. 4]	0.43	78.76	2.34	103	0.72	23.2	6.42

The next lines start with the values.

clearance (CL) [1] [L/h/kg]	F [1] [%]	AUC(0-t) [1] [µg·h/mL]	half-life [1] [min]	Vd [1] [L/kg]	half-life [2] [min]	CLint scaled [2] [L/h/kg]	Structure (SMILES)
1.78	182.46	0.572	30.6	0.67	16.5	9.03	CN(c1nc(Nc2cnn(C)c2)ncc1Cl)C1CCN(c2ccc(C#N)cn2)CC1 [Ex. 5, 6-(4-((5-chloro-2-((1-methyl-1H-pyrazol-4-yl)amino)pyrimidin-4-yl) (methyl)amino)piperidin-1-yl)nicotinonitrile]
0.58	75.3	1.74	43.2	0.63	17.4	8.54	Cc1nn(C)cc1Nc1ncc(Cl)c(NC2CCN(c3ccc(C#N)cn3)CC2)n1 [Ex. 10, 6-(4-((5-chloro-2-((1,3-dimethyl-1H-pyrazol-4-yl)amino)pyrimidin-4-yl)amino)piperidin-1-yl)nicotinonitrile]
0.23	136.8	4.66	58.8	0.31	27.7	5.38	Cn1cc(Nc2ncc(Cl)c(NC3CCN(c4ccc(C#N)cn4)CC3)n2)cn1 [Ex. 1, 6-(4-((5-chloro-2-((1-methyl-1H-pyrazol-4-yl)amino)pyrimidin-4-yl)amino)piperidin-1-yl)nicotinonitrile]

— US10059689B2, “Substituted heteroaryl compounds and methods of use” (Sunshine Lake Pharma Co., Ltd., priority 2014, dated 2018)
